According to ChEMBL document CHEMBL5604063, “ASAP - DENV-2 NS2B-NS3 protease fluorescence dose response” (2024):

What was measured:
Genome polyprotein [1] = target: T1, Genome polyprotein (dengue virus type 2, UniProt P29990); type: functional, Thailand/16681/1984
Genome polyprotein [2] = target: T1, Genome polyprotein; type: functional, Thailand/16681/1984; remark: listed apart in the source

T1 sequence (P29990 1346-1475 limits assumed): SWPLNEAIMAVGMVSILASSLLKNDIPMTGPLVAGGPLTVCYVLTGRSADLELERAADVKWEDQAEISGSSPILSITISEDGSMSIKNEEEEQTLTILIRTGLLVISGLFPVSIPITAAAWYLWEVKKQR
T1 sequence (P29990 1476-2093 limits assumed): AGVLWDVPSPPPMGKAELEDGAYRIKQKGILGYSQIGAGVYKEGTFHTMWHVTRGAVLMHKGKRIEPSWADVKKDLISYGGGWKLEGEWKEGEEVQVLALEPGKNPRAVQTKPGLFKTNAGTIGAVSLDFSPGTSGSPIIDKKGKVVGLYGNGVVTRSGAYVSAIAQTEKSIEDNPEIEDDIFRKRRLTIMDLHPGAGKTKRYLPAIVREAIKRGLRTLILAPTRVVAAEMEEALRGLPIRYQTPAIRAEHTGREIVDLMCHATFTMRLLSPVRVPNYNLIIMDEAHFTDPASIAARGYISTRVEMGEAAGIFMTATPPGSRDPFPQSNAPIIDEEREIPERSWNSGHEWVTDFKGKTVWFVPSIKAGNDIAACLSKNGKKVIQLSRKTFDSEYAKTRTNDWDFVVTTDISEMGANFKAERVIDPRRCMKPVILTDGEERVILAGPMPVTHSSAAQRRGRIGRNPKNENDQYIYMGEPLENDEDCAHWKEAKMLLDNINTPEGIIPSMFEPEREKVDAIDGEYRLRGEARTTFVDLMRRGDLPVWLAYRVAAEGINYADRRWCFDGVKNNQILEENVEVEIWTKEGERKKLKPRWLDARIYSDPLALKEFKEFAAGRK

Structure (SMILES) | IC50 (Genome polyprotein [1]) [µM] | IC50 (Genome polyprotein [2]) [µM]
NCc1cccc(NC(=O)[C@@H](NC(=O)OCc2ccccc2)C2CCN(S(=O)(=O)C3CCCC3)CC2)c1 | > 99.5 | > 100
NCc1cccc(NC(=O)c2cc(NC(=O)OCc3ccccc3)ccc2C(F)(F)F)c1 | > 99.5 | > 100
NCc1cccc(NC(=O)c2cc(Cl)cc(-n3cccc3)c2)c1 | > 99.5 | > 100
NCc1cccc(NC(=O)[C@@H](NC(=O)OCc2ccccc2)C2CCN(C(=O)C3CC3)CC2)c1 | > 99.5 | > 100
NCc1cccc(NC(=O)[C@H](NC(=O)OCc2ccccc2)C2CCN(C(=O)[C@H]3C[C@H](O)C3)CC2)c1 | > 99.5 | > 100
Cn1ccc(COc2ccc([C@@H](NC(=O)OCc3ccccc3)C(=O)Nc3cccc(CN)c3)cc2)n1 | > 99.5 | > 100
NCc1cccc(NC(=O)[C@@H](NC(=O)OCc2ccccc2)C2CCN(Cc3cn[nH]c3)CC2)c1 | > 99.5 | > 100
N#CC1(S(=O)(=O)N2CCC([C@H](NC(=O)OCc3ccccc3)C(=O)Nc3cccc(CN)c3)CC2)CCC1 | 81.8 | > 100
C[C@@H]1CNC[C@H]1c1ccc(NC(=O)c2ccc3c(c2)SCCN3)cc1 | > 99.5 | > 100
Cc1nnsc1CN1CCC([C@@H](NC(=O)OCc2ccccc2)C(=O)Nc2cccc(CN)c2)CC1 | > 99.5 | > 100
N#Cc1ccc(N2CCN(Cc3c[nH]c4ccccc34)CC2)cc1 | > 99.5 | > 100
NCc1cccc(NC(=O)[C@@H](NC(=O)OCc2ccccc2)C2CCN(Cc3cccnc3)CC2)c1 | > 99.5 | > 100
N#Cc1cc(Cl)cc(C(=O)Nc2cccc(CN)c2)c1 | > 99.5 | > 100
c1ccc(-c2[nH]c3ccccc3c2CN2CCC(c3cscn3)CC2)cc1 | > 99.5 | > 100
NCc1cccc(NC(=O)[C@@H](NC(=O)OCc2ccccc2)c2ccc(OCC3CCOCC3)cc2)c1 | 86 | > 100
NCc1cccc(NC(=O)c2cc(Cl)ccc2Oc2cccc(Cl)c2)c1 | > 99.5 | > 100
O=C(Cn1ccnc(N2CC[C@H](CO)C2)c1=O)NCc1ccsc1 | > 99.5 | > 100
Cn1nnc(S(=O)(=O)N2CCC([C@H](NC(=O)OCc3ccccc3)C(=O)Nc3cccc(CN)c3)CC2)n1 | > 99.5 | > 100
NS(=O)(=O)c1ccccc1N1CCN(Cc2c[nH]c3ccccc23)CC1 | > 99.5 | > 100

Structure (SMILES) | IC50 (Genome polyprotein [1]) [µM] | IC50 (Genome polyprotein [2]) [µM]
NCc1cccc(NC(=O)[C@@H](NC(=O)OCc2ccccc2)c2ccc(OCc3ccccn3)cc2)c1 | > 99.5 | > 100
NCc1cccc(NS(=O)(=O)c2cc(Cl)cc(NC(=O)OCc3ccccc3)c2)c1 | > 99.5 | > 100
CCOC(=O)Nc1cc(Cl)cc(C(=O)Nc2cccc(CN)c2)c1 | > 99.5 | > 100
NCc1cccc(NC(=O)[C@@H](NC(=O)OCc2ccccc2)c2ccc(OCc3nc4c(s3)COCC4)cc2)c1 | > 99.5 | > 100
NC[C@@H](NC(=O)c1cc(Cl)cc(NC(=O)OCc2ccccc2)c1)c1ccccc1 | > 99.5 | > 100
NC[C@H]1C[C@@H](CNC(=O)c2cc(Cl)cc(NC(=O)OCc3ccccc3)c2)CCO1 | > 99.5 | > 100
c1ccc(N2CCN(Cc3c[nH]c4ccccc34)CC2)nc1 | > 99.5 | > 100
c1ccc(COc2ccc3c(CN4CCC(c5cscn5)CC4)c[nH]c3c2)cc1 | > 99.5 | > 100
NCc1cccc(NC(=O)[C@@H](NC(=O)OCc2ccccc2)C2CCN(S(=O)(=O)Cc3cscn3)CC2)c1 | > 99.5 | > 100
C[C@@]1(CNC(=O)c2cc(Cl)cc(NC(=O)OCc3ccccc3)c2)CNCCOC1 | > 99.5 | > 100
Cc1nnc(S(=O)(=O)N2CCC([C@H](NC(=O)OCc3ccccc3)C(=O)Nc3cccc(CN)c3)CC2)s1 | > 99.5 | > 100
NCc1cccc(NC(=O)[C@@H](NC(=O)OCc2ccccc2)c2ccc(OC[C@H]3CCS(=O)(=O)C3)cc2)c1 | > 99.5 | > 100
O=C(Cn1ccnc(N2CC[C@H](CO)C2)c1=O)NCc1cccs1 | > 99.5 | > 100
NCc1cccc(NC(=O)c2cc(Cl)cc(Cl)c2O)c1 | > 99.5 | > 100
NCc1cccc(NC(=O)[C@@H](NC(=O)OCc2ccccc2)C2CCN(S(=O)(=O)[C@H]3CCOC3)CC2)c1 | > 99.5 | > 100
CC(=O)Nc1cc(Cl)cc(C(=O)Nc2cccc(CN)c2)c1 | > 99.5 | > 100
Cc1cccc(CNc2ccc(Cl)cc2C(=O)Nc2cccc(CN)c2)n1 | > 99.5 | > 100
NCc1cccc(NC(=O)[C@@H](NC(=O)OCc2ccccc2)C2CCN(Cc3ccncc3)CC2)c1 | > 99.5 | > 100
CN(C)Cc1csc(NC(=O)c2cc(Cl)cc(NC(=O)OCc3ccccc3)c2)n1 | > 99.5 | > 100

Structure (SMILES) | IC50 (Genome polyprotein [1]) [µM] | IC50 (Genome polyprotein [2]) [µM]
NCc1cccc(NC(=O)[C@@H](NC(=O)OCc2ccccc2)C2CCN(S(=O)(=O)Cc3ncon3)CC2)c1 | > 99.5 | > 100
NCc1cccc(NC(=O)c2nc(=O)cc(NC(=O)OCc3ccccc3)[nH]2)c1 | > 99.5 | > 100
CNCc1cccc(NC(=O)c2cc(Cl)cc(NC(=O)OCc3ccccc3)c2)c1 | 80.5 | > 100
NCc1cccc(NC(=O)[C@@H](NC(=O)OCc2ccccc2)C2CCN(C3CCOCC3)CC2)c1 | > 99.5 | > 100
Clc1ccc2c(CN3CCC(c4c[nH]c5ncccc45)CC3)c[nH]c2c1 | > 99.5 | > 100
COCC(=O)N1CCC([C@@H](NC(=O)OCc2ccccc2)C(=O)Nc2cccc(CN)c2)CC1 | > 99.5 | > 100
CC(C)S(=O)(=O)N1CCC([C@@H](NC(=O)OCc2ccccc2)C(=O)Nc2cccc(CN)c2)CC1 | > 99.5 | > 100
Cn1ccnc1C(=O)N1CCC([C@H](NC(=O)OCc2ccccc2)C(=O)Nc2cccc(CN)c2)CC1 | > 99.5 | > 100
CS(=O)(=O)N1CCC([C@@H](NC(=O)OCc2ccccc2)C(=O)Nc2cccc(CN)c2)CC1 | > 99.5 | > 100
O=C(Nc1cc(Cl)cc(C(=O)Nc2ccc3c(c2)CNCCO3)c1)OCc1ccccc1 | > 99.5 | > 100
O=C(Nc1cc(Cl)cc(C(=O)Nc2nccn2C2CNC2)c1)OCc1ccccc1 | > 99.5 | > 100
NCc1cccc(NC(=O)[C@@H](NC(=O)OCc2ccccc2)c2ccc(OCCN3CCCCC3)cc2)c1 | > 99.5 | > 100
NCc1cccc(NC(=O)[C@@H](NC(=O)OCc2ccccc2)c2ccc(OCc3cnccn3)cc2)c1 | > 99.5 | > 100
NCc1cc(F)cc(NC(=O)c2cc(Cl)cc(NC(=O)OCc3ccccc3)c2)c1 | > 99.5 | > 100
NC[C@]1(F)C[C@@H](NC(=O)c2cc(Cl)cc(NC(=O)OCc3ccccc3)c2)C1 | 66.6 | > 100
NS(=O)(=O)c1cccc(N2CCN(Cc3c[nH]c4ccccc34)CC2)c1 | > 99.5 | > 100
Cc1csc(N2CCN(Cc3c[nH]c4ccccc34)CC2)n1 | > 99.5 | > 100
C[C@@H](N)c1cccc(NC(=O)c2cc(Cl)cc(NC(=O)OCc3ccccc3)c2)c1 | 81 | > 100
